The values below come from US20150080305A1, “APPLICATION OF INITIAL DOSES OF LHRH ANALOGUES AND MAINTENANCE DOSES OF LHRH ANTAGONISTS FOR THE TREATMENT OF HORMONE-DEPENDENT CANCERS AND CORRESPONDING PHARMACEUTICAL KITS” (AETERNA ZENTARIS GmbH, priority 2006, published 2015).

Square brackets hold non-standard residues; d marks the D form. Peptide text beside a SMILES is read from it. dPhe(4-Cl) = N[C@H](Cc1ccc(Cl)cc1)C(=O)O; d2Nal = N[C@H](Cc1ccc2ccccc2c1)C(=O)O; dCit = NC(=O)NCCC[C@@H](N)C(=O)O; d3Pal = N[C@H](Cc1cccnc1)C(=O)O

In one assay the test system is PSA levels. The assay is described as follows: PSA levels in prostate cancer patients under initial/maintenance dose regimen. To be noted: for PSA levels decrease during first period: prostate cancer patients. In kind it is in vivo, human. The method, then: (§1) 130 mg ozarelix is given as a single monthly initial dose per i.m. injection every 4 weeks to patients suffering from prostate cancer for a first period of 3 months. […] Subsequently, patients are treated with single monthly maintenance doses of 30 mg ozarelix given per i.m. injection over a period of 6 months. […] The treatment scheme is then repeated continuously (chronic treatment).
(§2) […] ozarelix is given as a single initial dose per i.m. injection once every 3 months to patients suffering from prostate cancer for a first period of 3 to 6 months. […] Subsequently, patients are treated with single monthly maintenance doses of 40 mg ozarelix given per i.m. injection over a period of 6 months. […] The treatment scheme is then repeated continuously (chronic treatment).
(§3) 3.75 mg leuprorelin (leuprolide) are given as a single monthly initial dose per i.m. injection every 4 weeks to patients suffering from prostate cancer for a first period of 6 months. […] Subsequently, patients are treated with single monthly maintenance doses of 20 mg ozarelix given per i.m. injection over a period of 9 months. […] The treatment scheme is then repeated continuously (chronic treatment).
(§4) 11.25 mg leuprorelin (leuprolide) are given as a single initial dose per i.m. injection once every three months to patients suffering from prostate cancer for a first period of 3 months. […] Subsequently, patients are treated with single monthly maintenance doses of 50 mg ozarelix given per i.m. injection over a period of 3 months. […] The treatment scheme is then repeated continuously (chronic treatment).

The test system of the next assay is testosterone levels. Briefly: Testosterone levels in prostate cancer patients under initial/maintenance dose regimen. In kind it is in vivo, human. To be noted: for testosterone levels during first period: prostate cancer patients. On the procedure:
as §1, §2, §3, §4

A further assay has as its system hormone concentration. To be noted: volunteer tests; cited from earlier work.
Setting [1] is: Example 1: 130 mg single monthly initial dose i.m. every 4 weeks, first period of 3 months.
Where [2] appears, read: Example 1: single monthly maintenance doses of 30 mg i.m. over 6 months, after 130 mg ozarelix initial doses.
Where [3] appears, read: Example 2: 00 mg single initial dose i.m. once every 3 months, first period of 3 to 6 months.
[4] abbreviates: Example 2: single monthly maintenance doses of 40 mg i.m. over 6 months, after ozarelix initial doses.
Setting [5] is: Example 3: single monthly maintenance doses of 20 mg i.m. over 9 months, after 3.75 mg leuprorelin initial doses.
Setting [6] is: Example 4: single monthly maintenance doses of 50 mg i.m. over 3 months, after 11.25 mg leuprorelin initial dose.
Where [7] appears, read: Example 3: 3.75 mg single monthly initial dose i.m. every 4 weeks, first period of 6 months.
[8] abbreviates: Example 4: 11.25 mg single initial dose i.m. once every three months, first period of 3 months.

Regarding ozarelix, the “PSA levels decrease during first period” value in the assay with PSA levels (setting [1]) and in the assay on PSA levels (setting [3]) was “up to 95%” in each case. Also, the “PSA levels during second period” value in the assay with PSA levels (setting [2]), in the assay on PSA levels (setting [4]), with PSA levels (setting [5]) and in the assay with PSA levels (setting [6]) was “remain stably low” throughout. The “testosterone levels during first period” value with testosterone levels (setting [1]) and in the assay on testosterone levels (setting [3]) was “quickly reach castration level” each time. Also, the “testosterone levels during second period” value in the assay on testosterone levels (setting [2]), in the assay on testosterone levels (setting [4]), in the assay on testosterone levels (setting [5]) and with testosterone levels (setting [6]) was “above 0.5 ng/mL” throughout.

Take `CCNC(=O)[C@@H]1CCCN1C(=O)[C@H](CCCNC(=N)N)NC(=O)[C@H](CC(C)C)NC(=O)[C@@H](CC(C)C)NC(=O)[C@H](Cc1ccc(O)cc1)NC(=O)[C@H](CO)NC(=O)[C@H](Cc1c[nH]c2ccccc12)NC(=O)[C@H](Cc1c[nH]cn1)NC(=O)[C@@H]1CCC(=O)N1` [leuprorelin, reference compound]: the “PSA levels decrease during first period” value with PSA levels (setting [7]) and in the assay on PSA levels (setting [8]) was “up to 95%” throughout. The “testosterone levels during first period” value in the assay with testosterone levels (setting [7]) and with testosterone levels (setting [8]) was “quickly reach castration level” in each case.

Take `CC(=O)N[C@H](Cc1ccc2ccccc2c1)C(=O)N[C@H](Cc1ccc(Cl)cc1)C(=O)N[C@H](Cc1cccnc1)C(=O)N[C@@H](CO)C(=O)N[C@@H](Cc1ccc(O)cc1)C(=O)N[C@H](CCCNC(N)=O)C(=O)N[C@@H](CC(C)C)C(=O)N[C@@H](CCCNC(=N)N)C(=O)N1CCC[C@H]1C(=O)N[C@H](C)C(N)=O` [cetrorelix] (Ac-[d2Nal][dPhe(4-Cl)][d3Pal]SY[dCit]LRP[dA]-NH2): the “dose necessary for complete suppression of the hormone concentration to castration level” value with hormone concentration was 10 mg daily.
